This test has as its target EGFR (human) (UniProt P00533). The conditions noted are these: hn5.

Sequence of EGFR (human) (P00533 whole entry, looked up): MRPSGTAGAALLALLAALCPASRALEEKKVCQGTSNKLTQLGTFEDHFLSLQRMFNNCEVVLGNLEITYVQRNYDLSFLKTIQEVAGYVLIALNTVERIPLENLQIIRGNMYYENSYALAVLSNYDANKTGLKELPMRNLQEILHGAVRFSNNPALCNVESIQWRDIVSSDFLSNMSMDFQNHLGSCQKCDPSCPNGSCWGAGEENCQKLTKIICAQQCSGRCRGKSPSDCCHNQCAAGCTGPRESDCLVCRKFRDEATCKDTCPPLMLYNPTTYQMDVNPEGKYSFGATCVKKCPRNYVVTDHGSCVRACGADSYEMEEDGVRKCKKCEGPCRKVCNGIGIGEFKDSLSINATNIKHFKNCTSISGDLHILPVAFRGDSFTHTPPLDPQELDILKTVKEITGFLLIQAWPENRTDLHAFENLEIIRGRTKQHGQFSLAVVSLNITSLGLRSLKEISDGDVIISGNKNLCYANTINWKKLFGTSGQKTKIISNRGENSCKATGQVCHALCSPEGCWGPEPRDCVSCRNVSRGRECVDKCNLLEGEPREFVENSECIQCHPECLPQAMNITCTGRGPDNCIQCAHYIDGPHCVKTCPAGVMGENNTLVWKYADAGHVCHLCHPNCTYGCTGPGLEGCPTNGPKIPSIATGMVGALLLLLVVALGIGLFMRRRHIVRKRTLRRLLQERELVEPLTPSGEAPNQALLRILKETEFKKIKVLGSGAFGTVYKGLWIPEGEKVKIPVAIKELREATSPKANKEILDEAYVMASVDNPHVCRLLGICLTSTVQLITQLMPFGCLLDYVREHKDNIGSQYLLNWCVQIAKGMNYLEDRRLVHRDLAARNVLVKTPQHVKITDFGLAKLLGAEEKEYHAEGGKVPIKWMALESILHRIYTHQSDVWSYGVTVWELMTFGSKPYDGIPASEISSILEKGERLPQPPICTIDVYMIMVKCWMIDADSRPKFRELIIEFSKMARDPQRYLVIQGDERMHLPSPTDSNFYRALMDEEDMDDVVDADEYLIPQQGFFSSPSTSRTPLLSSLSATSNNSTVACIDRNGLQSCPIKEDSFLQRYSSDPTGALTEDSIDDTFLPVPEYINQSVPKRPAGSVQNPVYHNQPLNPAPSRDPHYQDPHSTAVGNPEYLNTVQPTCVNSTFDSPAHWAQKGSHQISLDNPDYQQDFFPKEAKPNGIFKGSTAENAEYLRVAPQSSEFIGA

What is called IC50 is the concentration at which inhibition is half-maximal. Higher therefore signals weaker potency in that assay. The compound `CS(=O)(=O)CCNCc1ccc(-c2cc3c(Nc4ccc(OCc5cccc(F)c5)cc4)ncnc3cn2)o1` came in with an IC50 of less than 5 µM.

Regarding `CS(=O)(=O)CCNCc1nc(-c2ccc3ncnc(Nc4ccc(OCc5ccccc5)cc4)c3c2)cs1`, the IC50 was less than 5 µM.

For the compound `CS(=O)(=O)CCNCc1ccc(-c2cc3c(Nc4ccc(S(=O)(=O)c5ccccc5)cc4)ncnc3cn2)o1`, the IC50 was less than 5 µM.

With `CS(=O)(=O)CCNCc1nc(-c2ccc3ncnc(Nc4ccc5c(cnn5Cc5ccccc5)c4)c3c2)cs1`, the IC50 is less than 5 µM.

Compound `CS(=O)(=O)CCNCc1coc(-c2ccc3ncnc(Nc4ccc(OCc5ccccc5)cc4)c3c2)c1` yielded an IC50 of less than 5 µM.

Turning to `CS(=O)(=O)CCNCc1ccc(-c2ccc3ncnc(Nc4ccc(OCc5ccccc5)c(C(F)(F)F)c4)c3c2)o1`, the IC50 was less than 5 µM.

Compound `CS(=O)(=O)CCNCc1nc(-c2ccc3ncnc(Nc4ccc5c(cnn5Cc5cccc(F)c5)c4)c3c2)cs1` had an IC50 of less than 5 µM.

`CS(=O)(=O)CCNCc1ccc(-c2ccc3ncnc(Nc4ccc(OCc5ccccc5)c(F)c4)c3c2)o1` came in with an IC50 of less than 5 µM.

`CS(=O)(=O)CCNCc1nc(-c2ccc3ncnc(Nc4ccc(OCc5ccccc5)c(F)c4)c3c2)cs1` registered an IC50 of less than 5 µM.

As to `COc1cc(Nc2ncnc3ccc(-c4ccc(CNCCS(C)(=O)=O)o4)cc23)ccc1OCc1cccc(F)c1`, the concentration for half-maximal inhibition (IC50) is less than 5 µM.

Turning to `CS(=O)(=O)CCNCc1ccc(-c2ccc3ncnc(Nc4ccc(OCc5cccc(C(F)(F)F)c5)cc4)c3c2)o1`, the IC50 fell in the range of 5 to 25 µM.

Regarding `COc1cc2ncnc(Nc3ccc4c(cnn4Cc4ccccc4)c3)c2cc1-c1ccc(CNCCS(C)(=O)=O)o1`, the IC50 is less than 5 µM.

Take `CS(=O)(=O)CCNCc1ccc(-c2cc3c(Nc4ccc(OCc5ccccc5)cc4)ncnc3cc2F)o1`: the IC50 was less than 5 µM.

`CS(=O)(=O)CCNCc1coc(-c2cc3c(Nc4ccc(OCc5cccc(F)c5)cc4)ncnc3cn2)c1`: the IC50 is less than 5 µM.

`CS(=O)(=O)CCNCc1ccoc1-c1ccc2ncnc(Nc3ccc(OCc4ccccc4)cc3)c2c1` registered an IC50 of 5 to 25 µM.

In turn, `CS(=O)(=O)CCNCc1nc(-c2ccc3ncnc(Nc4ccc(OCc5cccc(Br)c5)cc4)c3c2)cs1` returned an IC50 of 25 to 50 µM.

`CS(=O)(=O)CCNCc1nc(-c2ccc3ncnc(Nc4ccc(S(=O)(=O)c5ccccc5)cc4)c3c2)cs1`: the half-maximal inhibitory concentration (IC50) was less than 5 µM.

`CS(=O)(=O)CCNCc1nc(-c2ccc3ncnc(Nc4ccc(OCc5cccc(F)c5)c(F)c4)c3c2)cs1`: the IC50 is less than 5 µM.

As for `CS(=O)(=O)CCNCc1ccc(-c2cc3c(Nc4ccc(S(=O)(=O)c5ccccc5)cc4)ncnc3cc2F)o1`, the IC50 was 5 to 25 µM.

The compound `CS(=O)(=O)CCNCc1nc(-c2ccc3ncnc(Nc4ccc(OCc5cccc(C(F)(F)F)c5)cc4)c3c2)cs1` came in with an IC50 of less than 5 µM.

Take `CS(=O)(=O)CCNCc1ccc(-c2cc3c(Nc4ccc5c(cnn5Cc5ccccc5)c4)ncnc3cc2F)o1`: the IC50 is less than 5 µM.

The compound `COc1cc2ncnc(Nc3ccc(OCc4ccccc4)cc3)c2cc1-c1ccc(CNCCS(C)(=O)=O)o1` returned an IC50 of less than 5 µM.

As to `CS(=O)(=O)CCNCc1ccc(-c2ccc3ncnc(Nc4ccc(OCc5cccc(F)c5)cc4)c3c2)o1`, the IC50 is less than 5 µM.

Take `CS(=O)(=O)CCNCc1nc(-c2ccc3ncnc(Nc4ccc(OCc5cccc(F)c5)cc4)c3c2)cs1`: the concentration for half-maximal inhibition (IC50) was less than 5 µM.

`CS(=O)(=O)CCNCc1ccc(-c2ccc3ncnc(Nc4ccc(OCc5cccc(F)c5)c(F)c4)c3c2)o1` displayed an IC50 of less than 5 µM.

As to `CS(=O)(=O)CCNCc1ccc(-c2ccc3ncnc(Nc4ccc(OCc5ccccc5)c(Cl)c4)c3c2)o1`, the IC50 is less than 5 µM.

On to `COc1cc(Nc2ncnc3ccc(-c4csc(CNCCS(C)(=O)=O)n4)cc23)ccc1OCc1cccc(F)c1`, for which the IC50 is 5 to 25 µM.

Compound `CS(=O)(=O)CCNCc1ccc(-c2ccc3ncnc(Nc4ccc(S(=O)(=O)c5ccccc5)cc4)c3c2)o1` showed an IC50 of less than 5 µM.

Compound `CS(=O)(=O)CCNCc1ccc(-c2cc3c(Nc4ccc(OCc5ccc(F)cc5)cc4)ncnc3cn2)o1` yielded an IC50 of less than 5 µM.

`COc1cc2ncnc(Nc3ccc(S(=O)(=O)c4ccccc4)cc3)c2cc1-c1ccc(CNCCS(C)(=O)=O)o1` yielded a concentration for half-maximal inhibition (IC50) of less than 5 µM.

`CS(=O)(=O)CCNCc1ccc(-c2ccc3ncnc(Nc4ccc(OCc5cccc(Br)c5)cc4)c3c2)o1` gave an IC50 of less than 5 µM.

The compound `CS(=O)(=O)CCNCc1cccc(-c2cc3c(Nc4ccc(OCc5ccccc5)cc4)ncnc3cn2)c1` had an IC50 of less than 5 µM.
